Experimental data taken from patent publication US12590118B2, “Salt and crystal form of steroid derivative regulator” (Shanghai Hansoh Biomedical Co., Ltd., priority 2019, dated 2026).

Assays:
[1] = system: ICR mice; assay: Forced swimming model in mice; format: in vivo; conditions: for Mean (immobility, %): floating time/240 s; for Mean (immobility, s): latter four minutes of 6 min swim; for immobility time during the latter four minutes compared with that of the model group: forced swimming, ICR mice
Method: The antidepressant effect of the compound was evaluated by the forced swimming model in mice.
Compounds of Examples 1 to 3, Example 9, Example 40, Example 41, Examples 48 to 52, Example 90 and Example 98 of the present invention, prepared by the applicant.
Male ICR mice (25-35 g) were adapted in the experiment environment for 3 days before the forced swimming test.
According to the experiment design, the mice were randomly grouped on the day before the experiment according to body weight, with 12 mice in each group. Before the test, the compounds of each example were administered intragastrically according to the Tmax thereof in the brain in mice pharmacokinetic experiment.
Respectively: • 1) Model group (0.5% CMC-Na-1% Tween 80 solution, p.o., 10 mL/kg); • 2) Compounds of Examples 1 to 3, Example 40, Example 41, Examples 48 to 51, Example 90 and Example 98 (10 mg/kg, p.o., 10 mL/kg); Example 9 and Example 52 (5 mg/kg, p.o., 5 mL/kg).
When being administered, the compounds of each example were suspended in 0.5% CMC-Na+1% Tween 80 solution to the desired concentration.
0.5-1 hour after administration, ICR mice were placed in a forced swimming device (transparent glass drum (water depth 18 cm, water temperature 25-26° C.), one mouse per tank) and forced to swim for 6 minutes. The forced swimming device recorded the floating time of the ICR mice during the entire 6 minutes, and the data of the latter four minutes were used for data analysis. The mice were taken out immediately after the swimming experiment, wiped dry and put back in their original cages.
Note: The criterion for determining the immobility time is that the mouse stops struggling in water and floats, and there are only slight limb movements to keep the head floating on the water.
3.4 Data Analysis Floating time percentage=100*floating time/240 s.

[2] = biological target: GABA-A receptor; assay: 35S-TBPS binding assay (GABAA receptor binding ability assay); parameters: species or system Sprague-Dawley rat; conditions: rat cerebral cortex cell membrane, 5 μM GABA, 2 nM 35S-TBPS; read-out: IC50 on inhibiting the TBPS binding activity, 35S-TBPS bindng assay
Method: 1. The cerebral cortex of male Sprague-Dawley rat was isolated.
2. A pre-chilled 0.32 M sucrose solution (one tablet of protease inhibitor was added per 100 mL) was added to the cerebral cortex (the volume of sucrose solution was 10 times the volume of the cerebral cortex). The mixture was crushed with a 50 mL glass tissue homogenizer in batches and mixed well.
3. The mixture was centrifuged at 1,500 g, 4° C. for 10 minutes, and the supernatant was collected.
4. The mixture was centrifuged at 20,000 g, 4° C. for 30 minutes, and the supernatant was discarded.
5. The precipitate was resuspended with the pre-chilled phosphate buffer saline (PBS) (one tablet of protease inhibitor was added per 100 mL). An average of 4 mL of PBS was added per rat, and the mixture was mixed well with a glass tissue homogenizer.
6. The mixture was centrifuged at 10,000 g, 4° C. for 10 minutes, and the supernatant was discarded.
7. Steps 5 and 6 were repeated three times.
8. Finally, the precipitate was resuspended with 4 volumes of PBS. The resulting solution was dispensed, frozen in liquid nitrogen, and stored at −80° C.
9. The protein concentration was measured by the bicinchoninic acid (BCA) method.
1. 230 μL of PBS was added to each well of a well plate with 1.1 mL volume.
2. 60 μL of the cerebral cortex cell membrane (5 μg/μL) solution was added to each well, and the mixture was mixed well.
3. The test compound (3 μL per well) was added, and the plate was incubated at 25° C. for 5 minutes. The DMSO concentration was 1%. The initial compound concentration was […], and a
3-fold dilution in gradient was carried out to obtain a total of 8 gradients and 2 replicates. 1% DMSO was used as a negative control, and 10 μM P026-2 was used as a positive control.
4. GABA was added at a final concentration of 5 μM, and incubated at 25° C. for 5 minutes. 1 mM GABA solution was formulated, and 1.5 μL of the solution was added to each well.
5. 35S-TBPS was added at a final concentration of 2 nM. The concentration of isotope mother solution was 9.7 μM. After dilution with PBS for 100 times, 6 μL of the diluted isotope solution was added to each well.
6. The plate was incubated at 4° C. for 20 hours.
7. The FilterMate GF/C plate was pre-treated with 0.5% PEI, and incubated at 4° C. for 1 hour.
8. The FilterMate GF/C plate was washed with Universal Harvester twice, 50 mL PBS each time.
9. The reaction solution was transferred to the GF/C plate, and each well was washed 4 times with 900 μL of PBS.
10. The washed GF/C plate was placed at 55° C. and dried for 10 minutes.
11. 40 μL of scintillation solution was added to each well, and the CPM value was read with TopCount.
In the experiment, the CPM (counts per minute) value was read with TopCount. According to the readings of the High control (DMSO) and the Low control (10 μM of the positive compound) experimental groups, the % inhibition was calculated based on the following formula: % Inhibition=100×(CPMHigh control−CPMsample)/(CPMHigh control−CPMLow control)
The IC50 of the compound was calculated according to the following 4-parameter nonlinear logic formula: Y=Bottom+(Top−Bottom)/(1+10^((Log IC50−X)*HillSlope)),
wherein: • X represents the log of compound concentration, • Y represents the % Inhibition.
The effect of the compound of the present invention on the TBPS binding activity was determined by the above test, and the measured IC50 values are shown in Table 5.

[3] = biological target: T1, human GABAA receptor α1, β2 and γ2 subunit (HEK293T cell line) (Homo sapiens, UniProt P14867+P47870); assay: Positive regulatory effect on GABAA receptor, manual patch clamp; format: cell-based; conditions: whole-cell current, 1 μM GABA
T1 construct: expressed in transfected cells
T1 sequence (P14867 28-456): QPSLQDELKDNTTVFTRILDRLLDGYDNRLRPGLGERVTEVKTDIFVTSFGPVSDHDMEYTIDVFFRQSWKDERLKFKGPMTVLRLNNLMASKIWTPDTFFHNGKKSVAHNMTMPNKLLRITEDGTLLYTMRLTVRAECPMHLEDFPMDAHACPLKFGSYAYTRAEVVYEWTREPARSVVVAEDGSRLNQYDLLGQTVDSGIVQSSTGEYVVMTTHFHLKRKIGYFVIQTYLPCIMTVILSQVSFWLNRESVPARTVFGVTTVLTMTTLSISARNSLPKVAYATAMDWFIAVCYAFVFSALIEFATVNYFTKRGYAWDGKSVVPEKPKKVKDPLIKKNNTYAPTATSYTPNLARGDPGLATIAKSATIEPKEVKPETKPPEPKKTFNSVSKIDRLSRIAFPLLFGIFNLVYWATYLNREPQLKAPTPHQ
T1 sequence (P47870 25-512 limits assumed): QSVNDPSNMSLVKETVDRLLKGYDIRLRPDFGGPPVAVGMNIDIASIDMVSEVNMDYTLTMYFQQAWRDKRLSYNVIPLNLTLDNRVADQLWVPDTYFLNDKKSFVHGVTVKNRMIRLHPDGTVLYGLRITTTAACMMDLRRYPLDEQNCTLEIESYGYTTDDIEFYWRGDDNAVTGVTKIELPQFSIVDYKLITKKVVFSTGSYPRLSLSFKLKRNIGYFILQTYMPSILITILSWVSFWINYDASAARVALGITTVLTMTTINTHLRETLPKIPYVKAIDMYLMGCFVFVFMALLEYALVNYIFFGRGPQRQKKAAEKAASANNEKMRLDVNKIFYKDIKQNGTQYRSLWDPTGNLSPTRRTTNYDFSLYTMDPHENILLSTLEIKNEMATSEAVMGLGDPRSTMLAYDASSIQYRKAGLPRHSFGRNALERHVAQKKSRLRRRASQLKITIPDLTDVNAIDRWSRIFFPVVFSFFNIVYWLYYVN
T1 sequence (P18507 40-475 partner): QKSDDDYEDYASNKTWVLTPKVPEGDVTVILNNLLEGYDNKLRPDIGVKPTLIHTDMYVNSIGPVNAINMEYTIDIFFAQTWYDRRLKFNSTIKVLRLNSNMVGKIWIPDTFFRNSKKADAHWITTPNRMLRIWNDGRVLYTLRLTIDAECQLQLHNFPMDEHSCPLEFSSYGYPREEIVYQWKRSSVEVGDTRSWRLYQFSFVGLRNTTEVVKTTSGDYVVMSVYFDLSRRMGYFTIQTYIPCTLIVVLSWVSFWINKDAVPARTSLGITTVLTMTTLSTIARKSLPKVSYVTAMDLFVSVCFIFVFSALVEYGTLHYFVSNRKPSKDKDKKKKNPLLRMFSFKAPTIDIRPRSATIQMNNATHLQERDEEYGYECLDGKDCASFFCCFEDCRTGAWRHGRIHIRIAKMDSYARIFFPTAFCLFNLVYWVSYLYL
Method: The objective of this test example is to determine the positive regulatory effect of the compound on GABAA receptor by the electrophysiological manual patch clamp method.
Manual patch clamp system HEKA EPC10 USB signal amplifier and digital conversion system (purchased from HEKA Electronics, Germany), centrifuge (Eppendorf, etc.), carbon dioxide incubator (purchased from Thermo, etc.), biological safety cabinet (Thermo, etc.), pipette (purchased from Eppendorf, etc.).
The cells were grown in a culture dish with DMEM medium (purchased from Invitrogen), and cultured in an incubator at 37° C. and 5% CO2. Before the electrophysiological experiment, the cells were transferred to a round glass slide placed in the culture dish, and grown in the same culture medium and under the same culture condition as above. The density of cells on each round glass slide should meet the requirement that most cells were independent and individual.
Each test compound was diluted in gradient with DMSO to obtain a stock solution, which was then diluted with extracellular fluid by 1,000-fold to obtain the final test concentration. The final concentration of DMSO in the compound solution with each concentration was 0.1%. The experiment used the manual patch clamp system HEKA EPC10 USB signal amplifier and digital conversion system for whole cell current recording. The round glass slide with HEK293T GABAA cells grown on the surface was taken out of the culture dish, and placed in the electrophysiological recording tank under the inverted microscope. The recording tank was continuously perfused with extracellular fluid. During the experiment, the whole-cell current recording technology was used to record the chloride current of the GABAA channel. 1 μM GABA was used to activate the chloride current of the GABAA channel of each cell as an initial control. 1 μM GABA acted on the cell through the drug perfusion system to induce the chloride current of the GABAA channel, the action time was about 3 to 5 seconds, and the current value was used as the initial control value. The test concentration of compound was perfused and incubated for 2 to 5 minutes. […] GABA solution (mixed with the test concentration of compound) was given to the cells to observe the enhancement effect of the test compound on the current induced by 1 μM GABA. When the cell state was stable, the test compound acted on the same cell from low to high concentration to record the enhancement effect of the induced current.
The experimental data was analyzed by HEKA Patchmaster, Microsoft Excel and the data analysis software provided by Graphpad Prism.

Row | SMILES | Mean (immobility, %) ([1]; dose 10 mpk p.o.) | Mean (immobility, s) ([1]; dose 10 mpk p.o.) | IC50 [2] | Mean (immobility, %) ([1]; dose 5 mpk p.o.) | Mean (immobility, s) ([1]; dose 5 mpk p.o.) | EC50 [3] | immobility time during the latter four minutes compared with that of the model group [1]
1 | C[C@@]1(O)CC[C@H]2[C@H](CC[C@@H]3[C@@H]2CC[C@@]2(C)[C@H]3[C@@H]3C[C@@H]3[C@@H]2C(=O)Cn2cc(C#N)cn2)C1 [Example 1, 1-(2-((2R,4aS,4bR,6aS,7S,7aS,8aR,8bR,8cR,10aR)-2-hydroxy-2,6a-dimethyloctadecahydrocyclopropa[4,5]cyclopenta[1,2-a]phenanthren-7-yl)-2-oxoethyl)-1H-pyrazole-4-carbonitrile] | 54.26% | 130.22 s | 0.0243 µM | – | – | – | –
2 | C[C@@]1(O)CC[C@H]2[C@H](CC[C@@H]3[C@@H]2CC[C@@]2(C)[C@H]3[C@@H]3C[C@@H]3[C@@H]2C(=O)Cn2cc(C(F)(F)F)cn2)C1 [Example 3, 1-((2R,4aS,4bR,6aS,7S,7aS,8aR,8bR,8cR,10aR)-2-Hydroxy-2,6a-dimethyloctadecahydrocyclopropa[4,5]cyclopenta[1,2-a]phenanthren-7-yl)-2-(4-(trifluoromethyl)-1H-pyrazol-1-yl)ethan-1-one] | 59.93% | 143.81 s | 0.0135 µM | – | – | – | –
3 | C[C@@]1(O)CC[C@H]2[C@H](CC[C@@H]3[C@@H]2CC[C@]2(C)C(C(=O)Cn4cc(C#N)cn4)C[C@@H](C4CC4)[C@@H]32)C1 (stereo partly drawn) [Example 48, 1-(2-((3R,5R,8R,9R,10S,13S,14S,15S)-15-Cyclopropyl-3-hydroxy-3,13-dimethylhexadecahydro-1H-cyclopenta[a]phenanthren-17-yl)-2-oxoethyl)-1H-pyrazole-4-carbonitrile] | 55.92% | 134.21 s | 0.0075 µM | – | – | – | –
4 | C[C@@]1(O)CC[C@H]2[C@H](CC[C@@H]3[C@@H]2CC[C@@]2(C)[C@H]3[C@H](C3CC3)C[C@@H]2C(=O)Cn2ccnn2)C1 [Example 51, 1-((3R,5R,8R,9R,10S,13S,14S,15S,17S)-15-Cyclopropyl-3-hydroxy-3,13-dimethylhexadecahydro-1H-cyclopenta[a]phenanthren-17-yl)-2-(1H-1,2,3-triazol-1-yl)ethan-1-one] | – | – | – | 30.72% | 73.72 s | – | –
5 | C[C@@H]1C[C@H](C(=O)Cn2ccc(C(F)(F)F)n2)[C@@]2(C)CC[C@H]3[C@@H](CC[C@@H]4C[C@](C)(O)CC[C@@H]43)[C@H]12 [Example 86, 1-((3R,5R,8R,9R,10S,13S,14S,15R,17S)-3-Hydroxy-3,13,15-trimethylhexadecahydro-1H-cyclopenta[a]phenanthren-17-yl)-2-(3-(trifluoromethyl)-1H-pyrazol-1-yl)ethan-1-one] | – | – | 0.008 µM | – | – | 0.074 µM | –
6 | C[C@@H]1C[C@H](C(=O)Cn2cc(C#N)c(Cl)n2)[C@@]2(C)CC[C@H]3[C@@H](CC[C@@H]4C[C@](C)(O)CC[C@@H]43)[C@H]12 [Example 88, 3-Chloro-1-(2-((3R,5R,8R,9R,10S,13S,14S,15R,17S)-3-hydroxy-3,13,15-trimethylhexadecahydro-1H-cyclopenta[a]phenanthren-17-yl)-2-oxoethyl)-1H-pyrazole-4-carbonitrile] | – | – | 0.0067 µM | – | – | 0.049 µM | –
7 | C[C@@H]1C[C@H](C(=O)Cn2nc(C#N)cc2C#N)[C@@]2(C)CC[C@H]3[C@@H](CC[C@@H]4C[C@](C)(O)CC[C@@H]43)[C@H]12 [Example 89, 1-(2-((3R,5R,8R,9R,10S,13S,14S,15R,17S)-3-Hydroxy-3,13,15-trimethylhexadecahydro-1H-cyclopenta[a]phenanthren-17-yl)-2-oxoethyl)-1H-pyrazole-3,5-dicarbonitrile] | – | – | 0.0043 µM | – | – | 0.043 µM | –
8 | CC[C@@H]1C[C@H](C(=O)Cn2ccc(C#N)n2)[C@@]2(C)CC[C@H]3[C@@H](CC[C@@H]4C[C@](C)(O)CC[C@@H]43)[C@H]12 [Example 90, 1-(2-((3R,5R,8R,9R,10S,13S,14S,15R,17S)-15-Ethyl-3-hydroxy-3,13-dimethylhexadecahydro-1H-cyclopenta[a]phenanthren-17-yl)-2-oxoethyl)-1H-pyrazole-3-carbonitrile] | 36.92% | 88.61 s | 0.0162 µM | – | – | – | very significantly different
9 | C[C@@]1(O)CC[C@H]2[C@H](CC[C@@H]3[C@@H]2CC[C@@]2(C)[C@H]3[C@H](C3CC3)C[C@@H]2C(=O)Cn2ncnn2)C1 [Example 98, 1-((3R,5R,8R,9R,10S,13S,14S,15S,17S)-15-Cyclopropyl-3-hydroxy-3,13-dimethylhexadecahydro-1H-cyclopenta[a]phenanthren-17-yl)-2-(2H-tetrazol-2-yl)ethan-1-one] | – | – | 0.0214 µM | 33.54% | 80.5 s | – | very significantly different
